The target of this assay is T1, human EHMT2 913-1193 (Homo sapiens, UniProt Q96KQ7).
T1 construct: recombinant purified human EHMT2 913-1193, Viva; purchased Viva
T1 sequence (Q96KQ7 913-1193): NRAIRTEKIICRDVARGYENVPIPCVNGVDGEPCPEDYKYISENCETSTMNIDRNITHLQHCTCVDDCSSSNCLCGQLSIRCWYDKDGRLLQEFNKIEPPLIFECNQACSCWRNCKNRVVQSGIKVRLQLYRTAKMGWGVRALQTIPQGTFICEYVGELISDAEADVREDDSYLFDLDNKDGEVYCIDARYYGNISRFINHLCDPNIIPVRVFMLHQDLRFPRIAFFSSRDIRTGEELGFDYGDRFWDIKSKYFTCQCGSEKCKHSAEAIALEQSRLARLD
In words: EHMT2 enzyme assay on histone peptide substrate. The assay is classed as biochemical. The settings on record: histone H3 1-15 peptide, balanced conditions. From the text: Recombinant purified human EHMT2 913-1193 ([…]) synthesized by Viva was used for all experiments. Biotinylated histone peptides were synthesized by Biopeptide and HPLC-purified to >95% purity. Streptavidin Flashplates and seals were purchased from PerkinElmer and 384 Well V-bottom Polypropylene Plates were from Greiner. ^3H-labeled S-adenosylmethionine (^3H-SAM) was obtained from American Radiolabeled Chemicals with a specific activity of 80 Ci/mmol. Unlabeled SAM and S-adenosylhomocysteine (SAH) were obtained from American Radiolabeled Chemicals and Sigma-Aldrich respectively. Flashplates were washed in a Biotek ELx-405 with 0.1% Tween. 384-well Flashplates and 96-well filter binding plates were read on a TopCount microplate reader (PerkinElmer). Compound serial dilutions were performed on a Freedom EVO (Tecan) and spotted into assay plates using a Thermo Scientific Matrix PlateMate (Thermo Scientific). Reagent cocktails were added by Multidrop Combi (Thermo Scientific).
10-point curves of test compounds were made on a Freedom EVO (Tecan) using serial 3-fold dilutions in DMSO, beginning at 2.5 mM (final top concentration of compound was […] and the DMSO was 2%). A 1 μL aliquot of the inhibitor dilution series was spotted in a polypropylene 384-well V-bottom plate (Greiner) using a Thermo Scientific Matrix PlateMate (Thermo Scientific). The 100% inhibition control consisted of 1 mM final concentration of the product inhibitor S-adenosylhomocysteine (SAH, Sigma-Aldrich). Compounds were incubated for 30 minutes with 40 μL per well of 0.031 nM EHMT2 (recombinant purified human EHMT2 913-1193, Viva) in 1× assay buffer (20 mM Bicine [pH 7.5], 0.002% Tween 20, 0.005% Bovine Skin Gelatin and 1 mM TCEP). 10 μL per well of substrate mix comprising assay buffer, ^3H-SAM (^3H-labeled S-adenosylmethionine, American Radiolabeled Chemicals, specific activity of 80 Ci/mmol), unlabeled SAM (American Radiolabeled Chemicals), and peptide representing histone H3 residues 1-15 containing C-terminal biotin (appended to a C-terminal amide-capped lysine, synthesized by Biopeptide and HPLC-purified to greater than 95% purity) were added to initiate the reaction (both substrates were present in the final reaction mixture at their respective Km values, an assay format referred to as “balanced conditions”). Reactions were incubated for 60 minutes at room temperature and quenched with 10 μL per well of 400 μM unlabeled SAM, then transferred to a 384-well streptavidin Flashplate (PerkinElmer) and washed in a Biotek ELx-405 well washer with 0.1% Tween after 60 minutes. 384-well Flashplates were read on a TopCount microplate reader (PerkinElmer).

Setting [1] is: Table 3, read-out: EHMT2 PEP (IC50 μM).
Setting [2] is: Table 3A, read-out: EHMT2 (IC50 μM).

Each structure is given as a SMILES string. Like-named read-outs stand apart in the source and are kept apart here.

The record followed here is US20200317642A1, “AMINE-SUBSTITUTED HETEROCYCLIC COMPOUNDS AS EHMT2 INHIBITORS AND DERIVATIVES THEREOF” (Epizyme, Inc., priority 2017, published 2020).

As to `CNc1cc(C)nc(Nc2ccc(OC)c(CNC[C@@H](C)N3CCCC3)c2)n1` [Compound 42], under setting [1], the IC50 fell in the range of 0.1 to 1 µM.

For the molecule `CNc1cc(C)nc(Nc2ccc(OC)c(CNC[C@H](C)N3CCCC3)c2)n1` [Compound 43], the IC50 under setting [1] is more than 10 µM.

On to `CNc1cc(C)nc(Nc2ccc(OC)c(C#CC[N+](C)(C)CCN)c2)n1` [Compound 45], for which the IC50 under setting [1] was more than 10 µM. Take `CNc1cc(C)nc(Nc2ccc(OC)c(CN[C@@H](C)CN3CCCC3)c2)n1` [Compound 47]: under setting [1], the IC50 was in the range of 0.1 to 1 µM. As for `CNc1cc(C)nc(Nc2ccc(OC)c(CN[C@H](C)CN3CCCC3)c2)n1` [Compound 48], the IC50 under setting [1] lay in the range of 1 to 10 µM. As for `CNc1cc(C)nc(Nc2ccc(OC)c(C#CCNCCN(C)C)c2)n1` [Compound 49], under setting [1], the IC50 was 1 to 10 µM. `CNCc1cn(-c2cc(Nc3nc(C)cc(NC)n3)ccc2Cl)nn1` [Compound A1]: under setting [2], the IC50 is less than 0.01 µM. Same read-out and setting: for `CNC1=Nc2cc(-n3cc([C@H]4CCCN4)nn3)c(Cl)cc2C12CCC2` [Compound A2R, (R)-5′-chloro-N-methyl-6′-(4-(pyrrolidin-2-yl)-1H-1,2,3-triazol-1-yl)spiro[cyclobutane-1,3′-indol]-2′-amine] the value was less than 0.01 µM; for `CNC1=Nc2cc(-n3cc([C@@H]4CCCN4)nn3)c(Cl)cc2C12CCC2` [Compound A2S, (S)-5′-chloro-N-methyl-6′-(4-(pyrrolidin-2-yl)-1H-1,2,3-triazol-1-yl)spiro[cyclobutane-1,3′-indol]-2′-amine], 0.1 to 1 µM; for `CNC1=Nc2cc(-n3cc(C4CCCN4)nn3)c(Cl)cc2C12CCC2` (centres unmarked) [Compound A2], 0.01 to 0.1 µM.

For the molecule `CNCc1cn(-c2c(OC)ccc(Nc3nc(C)cc(NC)n3)c2F)nn1` [Compound A3, N2-(2-fluoro-4-methoxy-3-[4-[(methylamino)methyl]-1H-1,2,3-triazol-1-yl]phenyl)-N4,6-dimethylpyrimidine-2,4-diamine], under setting [2], the IC50 fell in the range of 0.01 to 0.1 µM.

Take `CNc1cc(C)nc(Nc2ccc(OC)c(-n3cc([C@H]4CCCN4)nn3)c2F)n1` [Compound A4R]: the IC50 under setting [2] lay within 0.01 to 0.1 µM.

On to `CNc1cc(C)nc(Nc2ccc(OC)c(-n3cc([C@@H]4CCCN4)nn3)c2F)n1` [Compound A4S], for which the IC50 under setting [2] lay within 0.1 to 1 µM.

Turning to `CNc1cc(C)nc(Nc2ccc(OC)c(-n3cc(C4CCCN4)nn3)c2F)n1` (centres unmarked) [Compound A4], the half-inhibitory concentration (IC50) under setting [2] lay within 0.01 to 0.1 µM.

For `CNc1cc(C)nc(Nc2ccc(OC)c(-n3cc(CNC(C)C)cn3)c2F)n1` [Compound A5], the half-inhibitory concentration (IC50) under setting [2] lay within 0.1 to 1 µM. On to `CNc1cc(C)nc(Nc2ccc(Cl)c(-n3cc(CN)cn3)c2Cl)n1` [Compound A6], for which, under setting [2], the IC50 was less than 0.01 µM. As to `CCNCc1cnn(-c2c(OC)ccc(Nc3nc(C)cc(NC)n3)c2F)c1` [Compound A7], the IC50 under setting [2] fell in the range of 0.1 to 1 µM. As for `CNCc1cnn(-c2c(OC)ccc(Nc3nc(NC)cc(C(C)C)n3)c2F)c1` [Compound A8, N^2-(2-fluoro-4-methoxy-3-[4-[(methylamino)methyl]-1H-pyrazol-1-yl]phenyl)-N^4-methyl-6-(propan-2-yl)pyrimidine-2,4-diamine], the IC50 under setting [2] is 0.01 to 0.1 µM.

For `CNc1cc(C)nc(Nc2ccc(OC)c(-n3ncc4c3CCNC4)c2F)n1` [Compound A9, N2-(2-fluoro-4-methoxy-3-(4,5,6,7-tetrahydro-1H-pyrazolo[4,3-c]142yridine-1-yl)phenyl)-N4,6-dimethylpyrimidine-2,4-diamine], the IC50 under setting [2] is 0.1 to 1 µM.

Regarding `CNC1=Nc2cc(-c3cc4n(n3)CCNC4)c(Cl)cc2C12CCC2` [Compound A10, 5′-chloro-N-methyl-6′-(4,5,6,7-tetrahydropyrazolo[1,5-a]pyrazin-2-yl)spiro[cyclobutane-1,3′-indol]-2′-amine], the IC50 under setting [2] is 0.1 to 1 µM.

`CNCc1cn(-c2cc3c(cc2Cl)C2(CCC2)C(NC)=N3)nn1` [Compound A11, 5′-chloro-N-methyl-6′-(4-((methylamino)methyl)-1H-1,2,3-triazol-1-yl)spiro[cyclobutane-1,3′-indol]-2′-amine]: under setting [2], the IC50 fell in the range of 0.01 to 0.1 µM.

For `CNC1=Nc2cc(-c3cc4n(n3)CCN(C)C4)c(Cl)cc2C12CCC2` [Compound A12, 5′-chloro-N-methyl-6′-(5-methyl-4,5,6,7-tetrahydropyrazolo[1,5-a]145yrazine-2-yl)spiro[cyclobutane-1,3′-indol]-2′-amine], the IC50 under setting [2] is more than 1 µM. Take `CNCc1cn(-c2c(Cl)ccc(Nc3nc(C)cc(NC)n3)c2Cl)nn1` [Compound A13, N2-(2,4-dichloro-3-(4-((methylamino)methyl)-1H-1,2,3-triazol-1-yl)phenyl)-N4,6-dimethylpyrimidine-2,4-diamine]: the IC50 under setting [2] is less than 0.01 µM. Same read-out and setting: the figure for `CNCc1cc(-c2c(OC)ccc(Nc3nc(C)cc(NC)n3)c2F)no1` [Compound A14, N2-(2-fluoro-4-methoxy-3-[5-[(methylamino)methyl]-1,2-oxazol-3-yl]phenyl)-N4,6-dimethylpyrimidine-2,4-diamine] is 0.01 to 0.1 µM. Turning to `CNCc1cn(-c2cc3c(cc2Cl)C2(CCC2)C(N)=N3)nn1` [Compound A15, 5′-chloro-6′-(4-((methylamino)methyl)-1H-1,2,3-triazol-1-yl)spiro[cyclobutane-1,3′-indol]-2′-amine], the IC50 under setting [2] was in the range of 0.01 to 0.1 µM. In the case of `CNC1=Nc2cc(-n3cc(CN4CCC4)cn3)c(Cl)cc2C12CCC2` [Compound A17, 6′-(4-(azetidin-1-ylmethyl)-1H-pyrazol-1-yl)-5′-chloro-N-methylspiro[cyclobutane-1,3′-indol]-2′-amine], the IC50 under setting [2] lay in the range of 0.01 to 0.1 µM. Turning to `CNc1cc(C)nc(Nc2ccc(OC)c(-n3cc4c(n3)CCNC4)c2F)n1` [Compound A19, N2-(2-fluoro-4-methoxy-3-(4,5,6,7-tetrahydro-2H-pyrazolo[4,3-c]pyridin-2-yl)phenyl)-N4,6-dimethylpyrimidine-2,4-diamine], the IC50 under setting [2] is 0.1 to 1 µM. Take `CNCc1cn(-c2c(OC)cc3c(c2F)N=C(NC)C32CCC2)nn1` [Compound A21]: the IC50 under setting [2] was 0.01 to 0.1 µM.

In the case of `CNCc1cn(-c2c(OC)cc3c(c2F)N=C(N)C32CCC2)nn1` [Compound A22], the IC50 under setting [2] was 0.01 to 0.1 µM.

In general, IC50 refers to the concentration that inhibits the measured activity by half.
